Patent publication US8716292B2, “Riminophenazines with 2-(heteroaryl)amino substituents and their anti-microbial activity” (priority 2010, dated 2014)
Values after ≈ are worked out from the molar mass of the structure shown.

tested on: Mycobacterium tuberculosis H37Rv strains; assay: In vitro assay for antimicrobial susceptibility (microplate Alamar blue MIC); type: cell-based; conditions: Mycobacterium tuberculosis, H37RV, 7H9, Alamar blue, inhibition ≧90%; read-out: MIC (μg/mL) against H37Rv

Row | Structure (SMILES) | MIC
1 | CC(C)/N=c1\cc2n(-c3ccc(Cl)cc3)c3ccccc3nc-2cc1Nc1ncccc1C#N [TBI-1075, 5-(4-Chlorophenyl)-3-(1-methylethyl)imino-2-(3-cyano-2-pyridyl)amino-3,5-dihydrophenazine] | 0.016 µg/mL (≈ 0.0344 µM)
2 | CC(C)/N=c1\cc2n(-c3ccc(F)cc3)c3ccccc3nc-2cc1Nc1ccccn1 [TBI-1054, 5-(4-Fluorophenyl)-3-(1-methylethyl)imino-2-(2-pyridyl)amino-3,5-dihydrophenazine] | 0.446 µg/mL (≈ 1.05 µM)
3 | CC(C)/N=c1\cc2n(-c3ccc(F)cc3)c3ccccc3nc-2cc1Nc1ncccc1C#N [TBI-1057] | 0.015 µg/mL (≈ 0.0334 µM)

same assay, conditions: Mycobacterium tuberculosis, H37RV, in vitro, Mycobacterium tuberculosis H37Rv strains; read-out: MIC (μg/mL) against H37Rv

Row | Structure (SMILES) | MIC
4 | COc1ncccc1Nc1cc2nc3ccccc3n(-c3ccc(C)cc3)c-2c/c1=N\C1CCN(CC(C)C)CC1 [TBI-314, 5-(4-Methylphenyl)-3-(N-isobutyl-4-piperidyl)imino-2-(2-methoxy-3-pyridyl)amino-3,5-dihydrophenazine] | 0.024 µg/mL (≈ 0.0439 µM)
5 | Cc1ccc(-n2c3c/c(=N\C4CCN(CC(C)C)CC4)c(Nc4cccnc4)cc-3nc3ccccc32)cc1 [TBI-305, 5-(4-Methylphenyl)-3-(N-isobutyl-4-piperidyl)imino-2-(3-pyridyl)amino-3,5-dihydrophenazine] | 0.125 µg/mL (≈ 0.242 µM)
6 | COCC(COC)/N=c1\cc2n(-c3ccc(Cl)c(Cl)c3)c3ccccc3nc-2cc1Nc1cccnc1OC [TBI-375, 5-(3,4-Dichlorophenyl)-3-(1,3-dimethoxyisopropyl)imino-2-(2-methoxy-3-pyridyl)amino-3,5-dihydrophenazine] | 0.125 µg/mL (≈ 0.221 µM)
7 | Cc1ccc(Nc2cc3nc4ccc(F)cc4n(-c4ccc(Cl)c(Cl)c4)c-3c/c2=N\C2CCOCC2)cn1 [TBI-949, 7-Fluoro-5-(3,4-dichlorophenyl)-3-(4-tetrahydropyranyl)imino-2-(6-methyl-3-pyridyl)amino-3,5-dihydrophenazine] | 0.816 µg/mL (≈ 1.49 µM)
8 | Cc1ccc(Nc2cc3nc4ccccc4n(-c4ccc(Br)cc4)c-3c/c2=N\C2CCC2)cn1 [TBI-501, 5-(4-Bromophenyl)-3-cyclobutylimino-2-(6-methyl-3-pyridyl)amino-3,5-dihydrophenazine] | 0.09 µg/mL (≈ 0.176 µM)
9 | Cc1ncccc1Nc1cc2nc3ccccc3n(-c3ccc(Cl)cc3)c-2c/c1=N\C(C)C [TBI-448, 5-(4-Chlorophenyl)-3-(1-methylethyl)imino-2-(2-methyl-3-pyridyl)amino-3,5-dihydrophenazine] | 0.055 µg/mL (≈ 0.121 µM)
10 | Cc1ccc(Nc2cc3nc4cc(C#N)ccc4n(-c4ccc(F)cc4)c-3c/c2=N\C(C)C)cn1 [TBI-1067, 8-Cyano-5-(4-fluorophenyl)-3-(1-methylethyl)imino-2-(6-methyl-3-pyridyl)amino-3,5-dihydrophenazine] | 0.117 µg/mL (≈ 0.253 µM)
11 | Cc1ccc(Nc2cc3nc4ccccc4n(-c4cccc(Cl)c4)c-3c/c2=N\C2CCCCC2)cn1 [TBI-80B, 5-(3-Chlorophenyl)-3-cyclohexylimino-2-(6-methyl-3-pyridyl)amino-3,5-dihydrophenazine] | 0.125 µg/mL (≈ 0.253 µM)
12 | Cc1cncc(Nc2cc3nc4ccccc4n(-c4ccc(C(F)(F)F)cc4)c-3c/c2=N\C2CCCCC2)c1 [TBI-722, 5-(4-Trifluoromethylphenyl)-3-cyclohexylimino-2-(5-methyl-3-pyridyl)amino-3,5-dihydrophenazine] | 0.031 µg/mL (≈ 0.0588 µM)
13 | COc1ccc(Nc2cc3nc4ccccc4n(-c4ccc(C(F)(F)F)cc4)c-3c/c2=N\C2CCCCC2)cn1 [TBI-732] | 0.113 µg/mL (≈ 0.208 µM)
14 | COC1CCC(/N=c2\cc3n(-c4ccc(C(F)(F)F)cc4)c4ccccc4nc-3cc2Nc2cncc(C)c2)CC1 (stereo not drawn) [TBI-724, 5-(4-Trifluoromethylphenyl)-3-(4-methoxycyclohexyl)imino-2-(5-meth-3-pyridyl)amino-3,5-dihydrophenazine] | 0.03 µg/mL (≈ 0.0538 µM)
15 | COc1ncccc1Nc1cc2nc3ccccc3n(-c3ccc(Cl)cc3Cl)c-2c/c1=N\C1CCC(OC)CC1 (stereo not drawn) [TBI-371, 5-(2,4-Dichlorophenyl)-3-(4-methoxycyclohexyl)imino-2-(2-methoxy-3-pyridyl)amino-3,5-dihydrophenazine] | 0.044 µg/mL (≈ 0.0766 µM)
16 | COCC(COC)/N=c1\cc2n(-c3cccc(Cl)c3)c3ccccc3nc-2cc1Nc1ccc(C)nc1 [TBI-80C, 5-(3-Chlorophenyl)-3-(1,3-dimethoxyisopropyl)imino-2-(6-methyl-3-pyridyl)amino-3,5-dihydrophenazine] | 0.327 µg/mL (≈ 0.636 µM)
17 | Clc1ccccc1-n1c2c/c(=N\C3CC3)c(Nc3cccnc3)cc-2nc2ccccc21 [TBI-892, 5-(2-Chlorophenyl)-3-cyclopropylimino-2-(3-pyridyl)amino-3,5-dihydrophenazine] | 0.028 µg/mL (≈ 0.0639 µM)
18 | COC1CCC(/N=c2\cc3n(-c4ccc(F)cc4)c4ccccc4nc-3cc2Nc2cccnc2C)CC1 (stereo not drawn) [TBI-1013, 5-(4-Fluorophenyl)-3-(4-methoxycyclohexyl)imino-2-(2-methyl-3-pyridyl)amino-3,5-dihydrophenazine] | 0.019 µg/mL (≈ 0.0374 µM)
19 | COc1nc(C)ccc1Nc1cc2nc3ccccc3n(-c3ccc(F)cc3)c-2c/c1=N\C(C)C [TBI-1092, 5-(4-Fluorophenyl)-3-(1-methylethyl)imino-2-(2-methoxy-6-methyl-3-pyridyl)amino-3,5-dihydrophenazine] | 0.424 µg/mL (≈ 0.907 µM)
20 | COc1ncccc1Nc1cc2nc3ccccc3n(-c3ccc(C(F)(F)F)cc3)c-2c/c1=N\C1CCN(C)CC1 [TBI-703, 5-(4-Trifluoromethylphenyl)-3-(N-methyl-4-piperidyl)imino-2-(2-methoxy-3-pyridyl)amino-3,5-dihydrophenazine] | 0.02 µg/mL (≈ 0.0358 µM)
21 | COc1ncccc1Nc1cc2nc3ccccc3n(-c3ccc(OC(F)(F)F)cc3)c-2c/c1=N\C(C)C [TBI-164, 5-(4-Trifluoromethoxyphenyl)-3-(1-methylethyl)imino-2-(2-methoxy-3-pyridyl)amino-3,5-dihydrophenazine] | 0.028 µg/mL (≈ 0.0539 µM)

Row | Structure (SMILES) | MIC
22 | COc1ncccc1Nc1cc2nc3ccccc3n(-c3ccccc3)c-2c/c1=N\C1CCCCC1 [TBI-079, 5-Phenyl-3-cyclohexylimino-2-(2-methoxy-3-pyridyl)amino-3,5-dihydrophenazine] | 0.068 µg/mL (≈ 0.143 µM)
23 | Cc1ncccc1Nc1cc2nc3ccccc3n(-c3ccc(F)cc3)c-2c/c1=N\C1CCSCC1 [TBI-1043, 5-(4-Fluorophenyl)-3-(4-tetrahydrothiopyranyl)imino-2-(2-methyl-3-pyridyl)amino-3,5-dihydrophenazine] | 0.021 µg/mL (≈ 0.0424 µM)
24 | COC1CCC(/N=c2\cc3n(-c4ccc(F)cc4)c4ccccc4nc-3cc2Nc2cccnc2)CC1 (stereo not drawn) [TBI-685, 5-(4-Fluorophenyl)-3-(4-methoxycyclohexyl)imino-2-(3-pyridyl)amino-3,5-dihydrophenazine] | 0.125 µg/mL (≈ 0.253 µM)
25 | COC1CCC(/N=c2\cc3n(-c4ccc(C)cc4)c4ccccc4nc-3cc2Nc2cccnc2)CC1 (stereo not drawn) [TBI-301, 5-(4-Methylphenyl)-3-(4-methoxycyclohexyl)imino-2-(3-pyridyl)amino-3,5-dihydrophenazine] | 0.06 µg/mL (≈ 0.123 µM)
26 | COc1ccc(Nc2cc3nc4ccccc4n(-c4ccccc4)c-3c/c2=N\C2CCC2)cn1 [TBI-512, 5-Phenyl-3-cyclobutylimino-2-(6-methoxy-3-pyridyl)amino-3,5-dihydrophenazine] | 0.41 µg/mL (≈ 0.916 µM)
27 | COC1CCC(/N=c2\cc3n(-c4ccc(OC(F)(F)F)cc4)c4ccc(F)cc4nc-3cc2Nc2ccc(C)nc2)CC1 (stereo not drawn) [TBI-866, 8-Fluoro-5-(4-trifluoromethoxyphenyl)-3-(4-methoxycyclohexyl)imino-2-(6-methyl-3-pyridyl)amino-3,5-dihydrophenazine] | 0.027 µg/mL (≈ 0.0456 µM)
28 | Cc1ccc(Nc2cc3nc4ccccc4n(-c4ccc(Br)cc4)c-3c/c2=N\C2CCCCC2)cn1 [TBI-502, 5-(4-Bromophenyl)-3-cyclohexylimino-2-(6-methyl-3-pyridyl)amino-3,5-dihydrophenazine] | 0.217 µg/mL (≈ 0.403 µM)
29 | COc1ncccc1Nc1cc2nc3ccccc3n(-c3ccc(C(F)(F)F)cc3)c-2c/c1=N\C1CCC(OC)CC1 (stereo not drawn) [TBI-700, 5-(4-Trifluoromethylphenyl)-3-(4-methoxycyclohexyl)imino-2-(2-methoxy-3-pyridyl)amino-3,5-dihydrophenazine] | 0.016 µg/mL (≈ 0.0279 µM)
30 | COC1CCC(/N=c2\cc3n(-c4ccccc4)c4ccccc4nc-3cc2Nc2cccnc2C)CC1 (stereo not drawn) [TBI-076] | 0.042 µg/mL (≈ 0.0858 µM)
31 | COc1ccc(Nc2cc3nc4ccccc4n(-c4ccc(C(F)(F)F)cc4)c-3c/c2=N\C(C)C)cn1 [TBI-731] | 0.348 µg/mL (≈ 0.691 µM)
32 | Cc1cncc(Nc2cc3nc4ccccc4n(-c4ccc(F)cc4)c-3c/c2=N\C2CC2)c1 [TBI-1030, 5-(4-Fluorophenyl)-3-cyclopropylimino-2-(5-methyl-3-pyridyl)amino-3,5-dihydrophenazine] | 0.012 µg/mL (≈ 0.0276 µM)
33 | FC(F)(F)Oc1cccc(-n2c3c/c(=N\C4CCCCC4)c(Nc4cccnc4)cc-3nc3ccccc32)c1 [TBI-1022, 5-(3-Trifluoromethoxyphenyl)-3-cyclohexylimino-2-(3-pyridyl)amino-3,5-dihydrophenazine] | 0.074 µg/mL (≈ 0.14 µM)
34 | CC(C)/N=c1\cc2n(-c3ccccc3C(F)(F)F)c3ccccc3nc-2cc1Nc1cccnc1 [TBI-720, 5-(2-Trifluoromethylphenyl)-3-(1-methylethyl)imino-2-(3-pyridyl)amino-3,5-dihydrophenazine] | 0.214 µg/mL (≈ 0.452 µM)
35 | Cc1ccc(Nc2cc3nc4ccccc4n(-c4ccc(Cl)cc4)c-3c/c2=N\C(C)C)cn1 [TBI-441] | 0.06 µg/mL (≈ 0.132 µM)
36 | Cc1ccc(Nc2cc3nc4ccccc4n(-c4ccc(OC(F)(F)F)cc4)c-3c/c2=N\C2CCOCC2)cn1 [TBI-950, 5-(4-Trifluoromethoxyphenyl)-3-(4-tetrahydropyranyl)imino-2-(6-methyl-3-pyridyl)amino-3,5-dihydrophenazine] | 0.035 µg/mL (≈ 0.0642 µM)
37 | COc1ncccc1Nc1cc2nc3ccccc3n(-c3ccc(Cl)cc3Cl)c-2c/c1=N\C1CCOCC1 [TBI-947, 5-(2,4-Dichlorophenyl)-3-(4-tetrahydropyranyl)imino-2-(2-methoxy-3-pyridyl)amino-3,5-dihydrophenazine] | 0.06 µg/mL (≈ 0.11 µM)
38 | COc1ncccc1Nc1cc2nc3ccccc3n(-c3ccc(NC(C)=O)cc3)c-2c/c1=N\C(C)C [TBI-1220, 5-(4-Acetamidophenyl)-3-(1-methylethyl)imino-2-(2-methoxy-3-pyridyl)amino-3,5-dihydrophenazine] | > 0.5 µg/mL

same assay, conditions: in vitro, Mycobacterium tuberculosis H37Rv strains

Row | Structure (SMILES) | MIC (μg/mL) against H37Rv
39 | COc1ncccc1Nc1cc2nc3ccc(F)cc3n(-c3ccc(Cl)cc3)c-2c/c1=N\C(C)C [TBI-926, 7-Fluoro-5-(4-chlorophenyl)-3-(1-methylethyl)imino-2-(2-methoxy-3-pyridyl)amino-3,5-dihydrophenazine] | 0.103 µg/mL (≈ 0.211 µM)
